Measurements published in US11109593B2, “Isoxazolin-5-one derivative and herbicide containing same as active ingredient” (HOKKO CHEMICAL INDUSTRY CO., LTD., priority 2017, dated 2021).

What was measured:
Type in all cases: in vivo
Scirpus juncoides [1] = assay: Test Example 2: herbicidal effect test by treatment during growing period in paddy rice cultivation (seven days after seeding); details: 120 g/10a active ingredient, assessed 14 days after treatment, dry weight vs untreated area; for pest or weed control at 1200 g/ha: Schoenoplectiella juncoides, 336 h, read-out: herbicidal rate (%) Scirpus juncoides
In short: (§1)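 Greenhouse flooded-pot test, seeds sown in puddled paddy soil; emulsion applied into water 7 d after seeding, 120 g a.i./10 a. Dry-weight-based herbicidal rate at 14 d, n=2.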

[2] = test system: broad leaf weeds (Lindernia pyxidaria and Monochoria vaginalis); assay: as above; details: 120 g/10a active ingredient, assessed 14 days after treatment, dry weight vs untreated area; for pest or weed control at 1200 g/ha: 336 h
In short: as §1

Echinochloa crus-galli [3] = assay: as above; details: 120 g/10a active ingredient, assessed 14 days after treatment, dry weight vs untreated area; for pest or weed control at 1200 g/ha: Echinochloa crus-galli, 336 h, read-out: herbicidal rate (%) Echinochloa crus-galli
In short: as §1

Scirpus juncoides [4] = assay: Test Example 1: herbicidal effect test by treatment of rice paddy soil (immediately after seeding); details: 120 g/10a active ingredient, dry weight vs untreated area, 14 days after treatment; for pest or weed control at 1200 g/ha: in Schoenoplectiella juncoides, 336 h, read-out: Herbicidal rate (%) Scirpus juncoides
In short: (§2)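 Application occurs immediately after seeding, with diluted emulsion added to paddy water (about 3 cm deep) over puddled, fertilized soil at 120 g active ingredient per 10 ares. Herbicidal rate is calculated from mean dry weight against untreated controls 14 days later.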

[5] = test system: broad leaf weeds (Lindernia pyxidaria and Monochoria vaginalis); assay: as above; details: 120 g/10a active ingredient, dry weight vs untreated area, 14 days after treatment; for pest or weed control at 1200 g/ha: 336 h
In short: as §2

Echinochloa crus-galli [6] = assay: as above; details: 120 g/10a active ingredient, dry weight vs untreated area, 14 days after treatment; for pest or weed control at 1200 g/ha: in Echinochloa crus-galli, 336 h, read-out: Herbicidal rate (%) Echinochloa crus-galli
In short: as §2

Chenopodium album [7] = assay: Test Example 3: herbicidal effect test by treatment of dry field farming soil (one day after seeding); details: 120 g/10a active ingredient, evaluated 14 days after treatment; for pest or weed control at 1200 g/ha: Chenopodium album, 336 h, read-out: herbicidal rate, Chenopodium album
In short: (§3)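 Compound emulsions are sprayed on the soil surface one day after sowing (120 g a.i. per 10 ares) before weeds emerge. Effect is expressed as percent dry-weight reduction versus untreated controls 14 days post-treatment.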

southern crabgrass [8] = assay: as above; details: 120 g/10a active ingredient, evaluated 14 days after treatment; for pest or weed control at 1200 g/ha: Digitaria ciliaris, 336 h, read-out: herbicidal rate, southern crabgrass
In short: as §3

Amaranthus viridis [9] = assay: as above; details: 120 g/10a active ingredient, evaluated 14 days after treatment; for pest or weed control at 1200 g/ha: Amaranthus viridis, 336 h, read-out: herbicidal rate, Amaranthus viridis
In short: as §3

Echinochloa crus-galli [10] = assay: as above; details: 120 g/10a active ingredient, evaluated 14 days after treatment; for pest or weed control at 1200 g/ha: Echinochloa crus-galli, 336 h, read-out: herbicidal rate, Echinochloa crus-galli
In short: as §3

Chenopodium album [11] = assay: Test Example 4: herbicidal effect test by treatment of leave and stem in dry field farming (seven days after seeding); details: 120 g/10a active ingredient, emulsion sprayed seven days after seeding, evaluated 14 days after treatment; for pest or weed control at 1200 g/ha: Chenopodium album, 336 h, read-out: herbicidal effect (herbicidal rate), Chenopodium album
In short: (§4)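 Duplicate pots were scored 14 days post-spray by dry weight, herbicidal rate = {1 − treated/untreated average dry weight} × 100. The water-diluted emulsion, equivalent to 120 g active ingredient per 10 ares in 100 L, was applied seven days after sowing 20 seeds each into the upper 1 cm of alluvial soil.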

southern crabgrass [12] = assay: as above; details: 120 g/10a active ingredient, emulsion sprayed seven days after seeding, evaluated 14 days after treatment; for pest or weed control at 1200 g/ha: Digitaria ciliaris, 336 h, read-out: herbicidal effect (herbicidal rate), southern crabgrass
In short: as §4

Amaranthus viridis [13] = assay: as above; details: 120 g/10a active ingredient, emulsion sprayed seven days after seeding, evaluated 14 days after treatment; for pest or weed control at 1200 g/ha: Amaranthus viridis, 336 h, read-out: herbicidal effect (herbicidal rate), Amaranthus viridis
In short: as §4

Echinochloa crus-galli [14] = assay: as above; details: 120 g/10a active ingredient, emulsion sprayed seven days after seeding, evaluated 14 days after treatment; for pest or weed control at 1200 g/ha: Echinochloa crus-galli, 336 h, read-out: herbicidal effect (herbicidal rate), Echinochloa crus-galli
In short: as §4

[15] = Lindernia pyxidaria, read-out: herbicidal rate (%) Lindernia pyxidaria
[16] = Monochoria vaginalis, read-out: herbicidal rate (%) Monochoria vaginalis
[17] = Monochoria vaginalis, read-out: Herbicidal rate (%) Monochoria vaginalis
[18] = in Lindernia, Lindernia pyxidaria, read-out: Herbicidal rate (%) Lindernia pyxidaria

| SMILES | Herbicidal rate (%) Scirpus juncoides (Scirpus juncoides [1]) [%] | Herbicidal rate (%) Lindernia pyxidaria ([2]; Lindernia pyxidaria) [%] | Herbicidal rate (%) Monochoria vaginalis ([2]; Monochoria vaginalis) [%] | Herbicidal rate (%) Echinochloa crus-galli (Echinochloa crus-galli [3]) [%] | Herbicidal rate (%) Scirpus juncoides (Scirpus juncoides [4]) [%] | Herbicidal rate (%) Lindernia pyxidaria ([5]; Lindernia pyxidaria) [%] | Herbicidal rate (%) Monochoria vaginalis ([5]; Monochoria vaginalis) [%] | Herbicidal rate (%) Echinochloa crus-galli (Echinochloa crus-galli [6]) [%] | herbicidal rate, Chenopodium album (Chenopodium album [7]) [%] | herbicidal rate, southern crabgrass (southern crabgrass [8]) [%] | herbicidal rate, Amaranthus viridis (Amaranthus viridis [9]) [%] | herbicidal rate, Echinochloa crus-galli (Echinochloa crus-galli [10]) [%] | herbicidal effect (herbicidal rate), Chenopodium album (Chenopodium album [11]) [%] | herbicidal effect (herbicidal rate), southern crabgrass (southern crabgrass [12]) [%] | herbicidal effect (herbicidal rate), Amaranthus viridis (Amaranthus viridis [13]) [%] | herbicidal effect (herbicidal rate), Echinochloa crus-galli (Echinochloa crus-galli [14]) [%] | other results |
| --- | --- | --- | --- | --- | --- | --- | --- | --- | --- | --- | --- | --- | --- | --- | --- | --- | --- |
| CCCCC(c1ccccc1)n1oc(=O)c(Cc2ccccc2NS(=O)(=O)C(F)(F)F)c1C (centres unmarked) [Compound 1-214] | 80 | 70 | 80 | 90 | 90 | 100 | 90 | 100 | 90 | 70 | 90 | 80 | 50 | 50 | 40 | 60 |  |
| CC(=O)N(c1ccccc1Cc1c(C)n(CC(C)C)oc1=O)S(=O)(=O)C(F)(F)F [Compound 1-297, N-[2-[(2-isobutyl-3-methyl-5-oxoisoxazol-4-yl)methyl]phenyl]-N-(trifluoromethylsulfonyl)acetamide] |  |  |  |  |  |  |  |  |  |  |  |  |  |  |  |  | pest or weed control at 1200 g/ha (Scirpus juncoides [1]): 90%; pest or weed control at 1200 g/ha [2, 15]: 100%; pest or weed control at 1200 g/ha [2, 16]: 90%; pest or weed control at 1200 g/ha (Echinochloa crus-galli [3]): 100%; pest or weed control at 1200 g/ha (Scirpus juncoides [4]): 100%; pest or weed control at 1200 g/ha [5, 17]: 100%; pest or weed control at 1200 g/ha [5, 18]: 100%; pest or weed control at 1200 g/ha (Echinochloa crus-galli [6]): 100%; pest or weed control at 1200 g/ha (Chenopodium album [7]): 90%; pest or weed control at 1200 g/ha (southern crabgrass [8]): 90%; pest or weed control at 1200 g/ha (Amaranthus viridis [9]): 90%; pest or weed control at 1200 g/ha (Echinochloa crus-galli [10]): 100%; pest or weed control at 1200 g/ha (Chenopodium album [11]): 40%; pest or weed control at 1200 g/ha (southern crabgrass [12]): 60%; pest or weed control at 1200 g/ha (Amaranthus viridis [13]): 40%; pest or weed control at 1200 g/ha (Echinochloa crus-galli [14]): 80% |
| Cc1c(Cc2ccccc2NS(=O)(=O)C(F)(F)F)c(=O)on1CC(C)C [Compound 1-105, 1,1,1-trifluoro-N-[2-[(2-isobutyl-3-methyl-5-oxoisoxazol-4-yl)methyl]phenyl]methanesulfonamide] |  |  |  |  |  |  |  |  |  |  |  |  |  |  |  |  | pest or weed control at 1200 g/ha (Scirpus juncoides [1]): 90%; pest or weed control at 1200 g/ha [2, 15]: 90%; pest or weed control at 1200 g/ha [2, 16]: 90%; pest or weed control at 1200 g/ha (Echinochloa crus-galli [3]): 90%; pest or weed control at 1200 g/ha (Scirpus juncoides [4]): 90%; pest or weed control at 1200 g/ha [5, 17]: 100%; pest or weed control at 1200 g/ha [5, 18]: 100%; pest or weed control at 1200 g/ha (Echinochloa crus-galli [6]): 90%; pest or weed control at 1200 g/ha (Chenopodium album [7]): 50%; pest or weed control at 1200 g/ha (southern crabgrass [8]): 90%; pest or weed control at 1200 g/ha (Amaranthus viridis [9]): 70%; pest or weed control at 1200 g/ha (Echinochloa crus-galli [10]): 60%; pest or weed control at 1200 g/ha (Chenopodium album [11]): 40%; pest or weed control at 1200 g/ha (southern crabgrass [12]): 50%; pest or weed control at 1200 g/ha (Amaranthus viridis [13]): 50%; pest or weed control at 1200 g/ha (Echinochloa crus-galli [14]): 90% |
| CCC(C)n1oc(=O)c(Cc2ccccc2N(S(C)(=O)=O)S(=O)(=O)C(F)(F)F)c1C (centres unmarked) [Compound 1-890] | 90 | 90 | 90 | 90 | 90 | 90 | 90 | 90 | 90 | 90 | 90 | 90 | 40 | 90 | 40 | 90 |  |
| COCC(C)n1oc(=O)c(Cc2ccccc2N(C(=O)OCc2ccccc2)S(=O)(=O)C(F)(F)F)c1C (centres unmarked) [Compound 1-790] | 90 | 90 | 90 | 90 | 90 | 90 | 90 | 90 | 90 | 90 | 90 | 90 | 40 | 90 | 40 | 90 |  |
| Cc1c(Cc2ccccc2N(S(=O)(=O)C(F)(F)F)S(=O)(=O)C(F)(F)F)c(=O)on1CC(C)(C)C [Compound 1-968] | 90 | 90 | 90 | 90 | 90 | 90 | 90 | 90 | 90 | 90 | 90 | 90 | 40 | 90 | 40 | 90 |  |
| CCC(CC)n1oc(=O)c(Cc2ccccc2N(C(=O)C(C)C)S(=O)(=O)C(F)(F)F)c1C [Compound 1-331] | 90 | 90 | 90 | 90 | 90 | 90 | 90 | 90 | 90 | 90 | 90 | 90 | 40 | 90 | 40 | 90 |  |
| CCS(=O)(=O)N(c1ccccc1Cc1c(C)n(C(C)COC)oc1=O)S(=O)(=O)C(F)(F)F (centres unmarked) [Compound 1-915] | 90 | 90 | 90 | 90 | 90 | 90 | 90 | 90 | 90 | 90 | 90 | 90 | 40 | 90 | 40 | 90 |  |
